Earlier results in paper PMC4703502 (Pharmacology & therapeutics, 2015).
Like-named read-outs stand apart in the source and are kept apart here. Values belong to the molecule of their own block, whether it stands above or below them.

What was measured:
[1] = tested on: spermatogenesis
[2] = tested on: fertility; conditions: ref Tash et al., 2008
[3] = tested on: inhibin B; conditions: in vivo; ref Tash et al., 2008a
[4] = tested on: spermatozoa; conditions: ref O’Rand & Widgren, 2012

Molecule: CC1(C)CC=C(c2cnc3ccccc3c2)c2cc(C(=O)Nc3ccc(C(=O)O)cc3)ccc21 [BMS-195614]
- effect on spermatogenesis ([1]; tested in vivo, ref Chung et al., 2013): no effect

- serum levels of inhibin B [3]: fall below measurable levels
Molecule: O=C(O)/C=C/c1nn(Cc2ccc(Cl)cc2Cl)c2cc(C(F)(F)F)ccc12 [Gamendazole]
- fertility recovery ([2]; daily treatment with 6 mg/kg during 7 days): 29%
- fertility recovery ([2]; rats, 3 mg/kg single oral dose): complete recovery
- infertility ([2]; rats, 3 mg/kg single oral dose): not complete infertility

Molecule: O=C(NCCCCCCCCNC(=O)C(Cl)Cl)C(Cl)Cl [WIN 18,446]
- effect on spermatogenesis ([1]; ref Amory et al., 2011): completely stops spermatogenesis

Molecule: BMS-189453
- effect on spermatogenesis ([1]; ref Chung et al., 2011): inhibit spermatogenesis

B1: SEMG1: semenogelin, seminal plasma protein that binds EPPIN on the sperm surface (protein, UniProt P04279 24-462, looked up)
Semenogelin-1: QKGGSKGRLPSEFSQFPHGQKGQHYSGQKGKQQTESKGSFSIQYTYHVDANDHDQSRKSQQYDLNALHKTTKSQRHLGGSQQLLHNKQEGRDHDKSKGHFHRVVIHHKGGKAHRGTQNPSQDQGNSPSGKGISSQYSNTEERLWVHGLSKEQTSVSGAQKGRKQGGSQSSYVLQTEELVANKQQRETKNSHQNKGHYQNVVEVREEHSSKVQTSLCPAHQDKLQHGSKDIFSTQDELLVYNKNQHQTKNLNQDQQHGRKANKISYQSSSTEERRLHYGENGVQKDVSQSSIYSQTEEKAQGKSQKQITIPSQEQEHSQKANKISYQSSSTEERRLHYGENGVQKDVSQRSIYSQTEKLVAGKSQIQAPNPKQEPWHGENAKGESGQSTNREQDLLSHEQKGRHQHGSHGGLDIVIIEQEDDSDRHLAQHLNNDRNPLFT
- decrease in internal calcium levels ([4]; 3μM SEMG1): > 30%
- time to decrease in internal pH ([4]; SEMG1 bound to EPPIN on the sperm surface): less than 1 minute
